In the supplement of paper PMC10733146:

What was measured:
Assay in all cases: viability relative to DMSO control (fraction); higher = less drug effect (more viable cells)
Conditions in all cases: 48 h
[1] = tested on: primary AML patient cells (S021)
Procedure, shortened: (§1)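 Cells were incubated for 48 h at 37 °C and 5% CO2 in RPMI-1640 with penicillin/streptomycin, L-glutamine and human serum, at 4 × 10^4 cells per well in 384-well plates with compounds pre-plated at five concentrations, one well each. These were primary mononuclear tumour cells, fresh or cryopreserved, Ficoll-isolated from blood or bone marrow or obtained from processed lymph node. Viability values are CellTiter-Glo luminescence relative to the median of 16 inner DMSO wells.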

[2] = tested on: primary B-PLL patient cells (S016)
Procedure, shortened: as §1

[3] = tested on: primary AML patient cells (S071)
Procedure, shortened: as §1

[4] = tested on: primary AML patient cells (S060)
Procedure, shortened: as §1

[5] = tested on: primary DLBCL patient cells (S049)
Procedure, shortened: as §1

[6] = tested on: primary ALL patient cells (S088)
Procedure, shortened: as §1

[7] = tested on: primary AML patient cells (S085)
Procedure, shortened: as §1

[8] = tested on: primary AML patient cells (S019)
Procedure, shortened: as §1

[9] = tested on: primary DLBCL patient cells (S076)
Procedure, shortened: as §1

[10] = tested on: primary T-NHL patient cells (S058)
Procedure, shortened: as §1

[11] = tested on: primary AML patient cells (S017)
Procedure, shortened: as §1

[12] = tested on: primary AML patient cells (S002)
Procedure, shortened: as §1

[13] = tested on: primary AML patient cells (S011)
Procedure, shortened: as §1

[14] = tested on: primary CLL patient cells (S043)
Procedure, shortened: as §1

[15] = tested on: primary AML patient cells (S081)
Procedure, shortened: as §1

[16] = tested on: primary AML patient cells (S025)
Procedure, shortened: as §1

[17] = tested on: primary BL patient cells (S005)
Procedure, shortened: as §1

## C[C@@H](Oc1cc(-c2cnn(C3CCNCC3)c2)cnc1N)c1c(Cl)ccc(F)c1Cl [Crizotinib]
[1]; 0.024 µM
  viability: 1.06
[1]; 0.12 µM
  viability: 1.1
[1]; 0.6 µM
  viability: 1.1
[1]; 3 µM
  viability: 0.831
[1]; 15 µM
  viability: 0.345
[2]; 0.024 µM
  viability: 0.971
[2]; 0.12 µM
  viability: 0.944
[2]; 0.6 µM
  viability: 0.874
[2]; 3 µM
  viability: 0.88
[2]; 15 µM
  viability: 0.255
[3]; 0.024 µM
  viability: 0.879
[3]; 0.12 µM
  viability: 0.837
[3]; 0.6 µM
  viability: 0.556
[3]; 3 µM
  viability: 0.363
[3]; 15 µM
  viability: 0.0351
[4]; 0.024 µM
  viability: 0.926
[4]; 0.12 µM
  viability: 0.931
[4]; 0.6 µM
  viability: 0.931
[4]; 3 µM
  viability: 0.841
[4]; 15 µM
  viability: 0.445
[5]; 0.024 µM
  viability: 1.04
[5]; 0.12 µM
  viability: 1.08
[5]; 0.6 µM
  viability: 1.04
[5]; 3 µM
  viability: 0.98
[5]; 15 µM
  viability: 0.0442
[6]; 0.024 µM
  viability: 0.93
[6]; 0.12 µM
  viability: 0.956
[6]; 0.6 µM
  viability: 0.798
[6]; 3 µM
  viability: 0.568
[6]; 15 µM
  viability: 0.0811
[7]; 0.024 µM
  viability: 1.04
[7]; 0.12 µM
  viability: 1.02
[7]; 0.6 µM
  viability: 0.822
[7]; 3 µM
  viability: 0.434
[7]; 15 µM
  viability: 0.18
[8]; 0.024 µM
  viability: 0.982
[8]; 0.12 µM
  viability: 1.11
[8]; 0.6 µM
  viability: 0.911
[8]; 3 µM
  viability: 0.665
[8]; 15 µM
  viability: 0.298
[9]; 0.024 µM
  viability: 0.938
[9]; 0.12 µM
  viability: 1.03
[9]; 0.6 µM
  viability: 0.999
[9]; 3 µM
  viability: 0.77
[9]; 15 µM
  viability: 0.17
[10]; 0.024 µM
  viability: 0.908
[10]; 0.12 µM
  viability: 1.01
[10]; 0.6 µM
  viability: 0.903
[10]; 3 µM
  viability: 0.812
[10]; 15 µM
  viability: 0.335
[11]; 0.024 µM
  viability: 1.03
[11]; 0.12 µM
  viability: 1.03
[11]; 0.6 µM
  viability: 1.02
[11]; 3 µM
  viability: 0.636
[11]; 15 µM
  viability: 0.299
[12]; 0.024 µM
  viability: 1.04
[12]; 0.12 µM
  viability: 1.08
[12]; 0.6 µM
  viability: 1.01
[12]; 3 µM
  viability: 0.928
[12]; 15 µM
  viability: 0.652
[13]; 0.024 µM
  viability: 0.996
[13]; 0.12 µM
  viability: 1.04
[13]; 0.6 µM
  viability: 0.822
[13]; 3 µM
  viability: 0.358
[13]; 15 µM
  viability: 0.0468
[14]; 0.024 µM
  viability: 0.95
[14]; 0.12 µM
  viability: 0.977
[14]; 0.6 µM
  viability: 0.949
[14]; 3 µM
  viability: 0.772
[14]; 15 µM
  viability: 0.4
[15]; 0.024 µM
  viability: 0.9
[15]; 0.12 µM
  viability: 0.922
[15]; 0.6 µM
  viability: 0.895
[15]; 3 µM
  viability: 0.85
[15]; 15 µM
  viability: 0.386
[16]; 0.024 µM
  viability: 0.983
[16]; 0.12 µM
  viability: 1.05
[16]; 0.6 µM
  viability: 1.02
[16]; 3 µM
  viability: 0.94
[16]; 15 µM
  viability: 0.794
[17]; 0.024 µM
  viability: 0.975
[17]; 0.12 µM
  viability: 0.986
[17]; 0.6 µM
  viability: 0.905
[17]; 3 µM
  viability: 0.766
[17]; 15 µM
  viability: 0.309
